Data published in article PMC5218480 (PLoS ONE, 2017).

System: MV-4-11 cells
Test: Gene expression microarray analysis (Affymetrix PrimeView) and GSEA
Format: cell-based, human
Parameters: RFU PODN (11730768_x_at) / Fold change /veh PODN (11730768_x_at) / RFU LINC00158 (11744669_a_at) / Fold change /veh LINC00158 (11744669_a_at) / RFU DUSP10 (11751237_a_at) / Fold change /veh DUSP10 (11751237_a_at) / RFU ID3 (11757404_x_at) / Fold change /veh ID3 (11757404_x_at) / RFU PLEKHG5 (11737974_s_at) / Fold change /veh PLEKHG5 (11737974_s_at) / RFU LRRC4B (11730491_at) / Fold change /veh LRRC4B (11730491_at) / RFU GIMAP4 (11747438_a_at) / Fold change /veh GIMAP4 (11747438_a_at) / RFU KRT8 (11758183_x_at) / Fold change /veh KRT8 (11758183_x_at) / RFU CNN1 (11734310_a_at) / Fold change /veh CNN1 (11734310_a_at) / RFU VPS37D (11726825_at) / Fold change /veh VPS37D (11726825_at) / RFU C10orf10 (11716522_x_at) / Fold change /veh C10orf10 (11716522_x_at) / RFU KIR2DL2 /// KIR2DL4 /// KIR2DL5A /// KIR2DL5B /// KIR2DS1 /// KIR2DS2 /// KIR2DS3 /// KIR2DS4 /// KIR3DL3 /// KIR3DL3 /// KIR3DS1 (11738374_at) / Fold change /veh KIR2DL2 /// KIR2DL4 /// KIR2DL5A /// KIR2DL5B /// KIR2DS1 /// KIR2DS2 /// KIR2DS3 /// KIR2DS4 /// KIR3DL3 /// KIR3DL3 /// KIR3DS1 (11738374_at) / RFU C1QL1 (11718748_at) / Fold change /veh C1QL1 (11718748_at) / RFU TMPRSS4 (11747572_a_at) / Fold change /veh TMPRSS4 (11747572_a_at) / RFU HAMP (11756126_x_at) / Fold change /veh HAMP (11756126_x_at) / RFU RNFT2 (11725882_a_at) / Fold change /veh RNFT2 (11725882_a_at) / RFU NR4A2 (11747474_a_at) / Fold change /veh NR4A2 (11747474_a_at) / RFU ABCC12 (11746883_a_at) / Fold change /veh ABCC12 (11746883_a_at) / RFU TMEM136 (11760407_x_at) / Fold change /veh TMEM136 (11760407_x_at) / RFU CLDN22 /// WWC2 (11732394_at) / Fold change /veh CLDN22 /// WWC2 (11732394_at) / RFU HLA-DPB1 (11760878_x_at) / Fold change /veh HLA-DPB1 (11760878_x_at) / RFU SPINT1 (11716480_a_at) / Fold change /veh SPINT1 (11716480_a_at) / RFU GAP43 (11754022_s_at) / Fold change /veh GAP43 (11754022_s_at) / RFU A4GNT (11735810_at) / Fold change /veh A4GNT (11735810_at) / RFU PRB3 (11715151_x_at) / Fold change /veh PRB3 (11715151_x_at) / RFU TUBB4B (11761932_at) / Fold change /veh TUBB4B (11761932_at) / RFU CAPN14 (11732068_a_at) / Fold change /veh CAPN14 (11732068_a_at) / RFU TMCC2 (11721928_a_at) / Fold change /veh TMCC2 (11721928_a_at) / RFU IRGQ (11745062_a_at) / Fold change /veh IRGQ (11745062_a_at) / RFU FAM174B (11720279_a_at) / Fold change /veh FAM174B (11720279_a_at) / RFU TMPRSS4 (11748680_a_at) / Fold change /veh TMPRSS4 (11748680_a_at) / RFU FAM212B (11763350_a_at) / Fold change /veh FAM212B (11763350_a_at) / RFU PLEKHG5 (11743358_a_at) / Fold change /veh PLEKHG5 (11743358_a_at) / RFU ZSCAN30 (11745921_a_at) / Fold change /veh ZSCAN30 (11745921_a_at) / RFU CMKLR1 (11741424_a_at) / Fold change /veh CMKLR1 (11741424_a_at) / RFU LOC101060620 /// MAPK8IP1 (11723275_at) / Fold change /veh LOC101060620 /// MAPK8IP1 (11723275_at) / RFU SPTSSB (11747773_x_at) / Fold change /veh SPTSSB (11747773_x_at) / RFU PRSS12 (11739890_at) / Fold change /veh PRSS12 (11739890_at) / RFU BIN1 (11741810_x_at) / Fold change /veh BIN1 (11741810_x_at) / RFU WNT11 (11732464_a_at) / Fold change /veh WNT11 (11732464_a_at) / RFU C10orf10 (11716521_a_at) / Fold change /veh C10orf10 (11716521_a_at) / RFU C5orf56 (11738089_at) / Fold change /veh C5orf56 (11738089_at) / RFU CYB561 (11721691_x_at) / Fold change /veh CYB561 (11721691_x_at) / RFU ANKRD19P (11752326_a_at) / Fold change /veh ANKRD19P (11752326_a_at) / RFU OR2T12 /// OR2T33 /// OR2T8 (11738714_s_at) / Fold change /veh OR2T12 /// OR2T33 /// OR2T8 (11738714_s_at) / RFU VCAN (11748164_a_at) / Fold change /veh VCAN (11748164_a_at) / RFU JSRP1 (11732532_at) / Fold change /veh JSRP1 (11732532_at) / RFU KRTAP10-11 (11738290_x_at) / Fold change /veh KRTAP10-11 (11738290_x_at) / RFU MYO3A (11730013_a_at) / Fold change /veh MYO3A (11730013_a_at) / RFU EBF3 (11725865_a_at) / Fold change /veh EBF3 (11725865_a_at) / RFU CAMK2N1 (11719241_x_at) / Fold change /veh CAMK2N1 (11719241_x_at) / RFU C5orf56 (11738088_a_at) / Fold change /veh C5orf56 (11738088_a_at) / RFU OLFML3 (11715873_a_at) / Fold change /veh OLFML3 (11715873_a_at) / RFU LOC100653217 /// NTM (11731650_a_at) / Fold change /veh LOC100653217 /// NTM (11731650_a_at) / RFU MAPK11 (11762145_a_at) / Fold change /veh MAPK11 (11762145_a_at) / RFU FIZ1 (11724087_x_at) / Fold change /veh FIZ1 (11724087_x_at) / RFU OASL (11726364_x_at) / Fold change /veh OASL (11726364_x_at) / RFU SOX15 (11748057_x_at) / Fold change /veh SOX15 (11748057_x_at) / RFU CD79A (11719716_a_at) / Fold change /veh CD79A (11719716_a_at) / RFU HIST1H1D (11736915_at) / Fold change /veh HIST1H1D (11736915_at) / RFU CASKIN2 (11723855_a_at) / Fold change /veh CASKIN2 (11723855_a_at) / RFU LOC730098 (11760151_x_at) / Fold change /veh LOC730098 (11760151_x_at) / RFU OR4N2 (11742367_at) / Fold change /veh OR4N2 (11742367_at) / RFU PRRT2 (11749266_a_at) / Fold change /veh PRRT2 (11749266_a_at) / RFU SNX32 (11753110_a_at) / Fold change /veh SNX32 (11753110_a_at) / RFU CDHR5 (11726645_a_at) / Fold change /veh CDHR5 (11726645_a_at) / RFU RCAN1 (11760418_a_at) / Fold change /veh RCAN1 (11760418_a_at) / RFU FAM167A (11723789_a_at) / Fold change /veh FAM167A (11723789_a_at) / RFU FAM26E (11764081_at) / Fold change /veh FAM26E (11764081_at) / RFU ISYNA1 (11749810_s_at) / Fold change /veh ISYNA1 (11749810_s_at) / RFU ACY1 (11761880_at) / Fold change /veh ACY1 (11761880_at) / RFU 11764098_at / Fold change /veh 11764098_at / RFU SAMD14 (11745864_x_at) / Fold change /veh SAMD14 (11745864_x_at) / RFU NPB (11741838_a_at) / Fold change /veh NPB (11741838_a_at) / RFU TMPRSS6 (11731388_a_at) / Fold change /veh TMPRSS6 (11731388_a_at) / RFU KRTAP10-2 (11738614_at) / Fold change /veh KRTAP10-2 (11738614_at) / RFU ARHGAP8 /// PRR5-ARHGAP8 (11727945_x_at) / Fold change /veh ARHGAP8 /// PRR5-ARHGAP8 (11727945_x_at) / RFU KRTAP5-7 /// NADSYN1 (11734609_at) / Fold change /veh KRTAP5-7 /// NADSYN1 (11734609_at) / RFU RASL12 (11751679_a_at) / Fold change /veh RASL12 (11751679_a_at) / RFU CDKN2B (11736163_a_at) / Fold change /veh CDKN2B (11736163_a_at) / RFU PRF1 (11729649_at) / Fold change /veh PRF1 (11729649_at) / RFU, ZNF638 /// ZNF638-IT1 / Fold change vs veh, ZNF638 /// ZNF638-IT1 / RFU, PANK3 / Fold change vs veh, PANK3 / RFU, SH3YL1 / Fold change vs veh, SH3YL1 / RFU, ZEB2 / Fold change vs veh, ZEB2 / RFU, NRIP1 / Fold change vs veh, NRIP1 / RFU, PTTG1IP / Fold change vs veh, PTTG1IP / RFU, CAPN2 / Fold change vs veh, CAPN2 / RFU, MED14 / Fold change vs veh, MED14 / RFU, SNORA58 / Fold change vs veh, SNORA58 / RFU, C1orf63 / Fold change vs veh, C1orf63 / RFU, LRRFIP1 / Fold change vs veh, LRRFIP1 / RFU, NDUFAF7 / Fold change vs veh, NDUFAF7 / RFU, SLC12A2 / Fold change vs veh, SLC12A2 / RFU, IBTK / Fold change vs veh, IBTK / RFU, ESF1 / Fold change vs veh, ESF1 / Fold change vs veh, TMEM50B / RFU, TAOK1 / Fold change vs veh, TAOK1 / RFU, ACBD3 / Fold change vs veh, ACBD3 / RFU, TMA16 / Fold change vs veh, TMA16 / RFU, RWDD3 / Fold change vs veh, RWDD3 / RFU, BCAT1 / Fold change vs veh, BCAT1 / RFU, EDEM3 / Fold change vs veh, EDEM3 / RFU, TMEM33 / Fold change vs veh, TMEM33 / RFU, WDR75 / Fold change vs veh, WDR75 / RFU, AHCTF1 / Fold change vs veh, AHCTF1 / RFU, TFRC / Fold change vs veh, TFRC / RFU, ZDHHC17 / Fold change vs veh, ZDHHC17 / RFU, NOM1 / Fold change vs veh, NOM1 / RFU, ARL8B / Fold change vs veh, ARL8B / RFU, ZBTB11 / Fold change vs veh, ZBTB11 / RFU, TAMM41 / Fold change vs veh, TAMM41 / RFU, KIAA1704 /// LOC100996395 / Fold change vs veh, KIAA1704 /// LOC100996395 / RFU, ING1 / Fold change vs veh, ING1 / RFU, TRMT61B / Fold change vs veh, TRMT61B / RFU, FUBP3 / Fold change vs veh, FUBP3 / RFU, TP53 / Fold change vs veh, TP53 / RFU, TNKS2 / Fold change vs veh, TNKS2 / RFU, ZFP14 / Fold change vs veh, ZFP14 / RFU, ACTR2 / Fold change vs veh, ACTR2 / RFU, PPP3R1 / Fold change vs veh, PPP3R1 / RFU, PIK3R1 / Fold change vs veh, PIK3R1 / RFU, HNRNPA1 / Fold change vs veh, HNRNPA1 / RFU, RNF170 / Fold change vs veh, RNF170 / RFU, ZNF28 / Fold change vs veh, ZNF28 / RFU, RNGTT / Fold change vs veh, RNGTT / RFU, OGT / Fold change vs veh, OGT / RFU, BRD1 / Fold change vs veh, BRD1 / RFU, MARS / Fold change vs veh, MARS / RFU, ZNF655 / Fold change vs veh, ZNF655 / RFU, FAHD1 / Fold change vs veh, FAHD1 / RFU, BDP1 / Fold change vs veh, BDP1 / RFU, LRRCC1 / Fold change vs veh, LRRCC1 / RFU, ARID1A / Fold change vs veh, ARID1A / RFU, ZNF146 / Fold change vs veh, ZNF146 / RFU, ZNF330 / Fold change vs veh, ZNF330 / RFU, GPN3 / Fold change vs veh, GPN3 / RFU, C9orf123 / Fold change vs veh, C9orf123 / RFU, N4BP2L2 / Fold change vs veh, N4BP2L2 / RFU, ARFIP1 / Fold change vs veh, ARFIP1 / RFU, FAM179B / Fold change vs veh, FAM179B / RFU, BCL10 / Fold change vs veh, BCL10 / RFU, UHRF1BP1L / Fold change vs veh, UHRF1BP1L / RFU, BET1 / Fold change vs veh, BET1 / RFU, CNOT2 / Fold change vs veh, CNOT2 / RFU, ZNF268 / Fold change vs veh, ZNF268 / Fold change vs veh, ZNF507 / RFU, DGCR2 / Fold change vs veh, DGCR2 / RFU, WDSUB1 / Fold change vs veh, WDSUB1 / Fold change vs veh, HSP90B1 /// MIR3652 / RFU, ADSS / Fold change vs veh, ADSS / RFU, GK / Fold change vs veh, GK / RFU, ZNF148 / Fold change vs veh, ZNF148 / RFU, TAF9 / Fold change vs veh, TAF9 / RFU, SLC1A5 / Fold change vs veh, SLC1A5 / RFU, SLMO2 / Fold change vs veh, SLMO2 / RFU, ABCC4 / Fold change vs veh, ABCC4 / RFU, LOC101060439 /// RAP1B / Fold change vs veh, LOC101060439 /// RAP1B / RFU, RFX7 / Fold change vs veh, RFX7 / RFU, GTPBP10 / Fold change vs veh, GTPBP10 / RFU, CNEP1R1 / Fold change vs veh, CNEP1R1 / RFU, BIVM-ERCC5 /// ERCC5 / Fold change vs veh, BIVM-ERCC5 /// ERCC5 / RFU, ILF3 / Fold change vs veh, ILF3 / RFU 11762660_at / Fold change /veh 11762660_at / RFU VCAN (11757783_s_at) / Fold change /veh VCAN (11757783_s_at) / RFU DDX43 (11728927_at) / Fold change /veh DDX43 (11728927_at) / RFU KRT8 (11758188_x_at) / Fold change /veh KRT8 (11758188_x_at) / RFU NKD1 (11759106_at) / Fold change /veh NKD1 (11759106_at) / RFU SRD5A1 (11742802_a_at) / Fold change /veh SRD5A1 (11742802_a_at) / RFU TPSAB1 /// TPSB2 (11721975_s_at) / Fold change /veh TPSAB1 /// TPSB2 (11721975_s_at) / RFU GSTM3 (11746129_a_at) / Fold change /veh GSTM3 (11746129_a_at) / RFU IL23R (11737362_x_at) / Fold change /veh IL23R (11737362_x_at) / RFU TMEM51 (11727254_a_at) / Fold change /veh TMEM51 (11727254_a_at) / RFU PIWIL2 (11732686_x_at) / Fold change /veh PIWIL2 (11732686_x_at) / RFU ORM1 (11744905_x_at) / Fold change /veh ORM1 (11744905_x_at) / RFU CCDC152 (11743942_at) / Fold change /veh CCDC152 (11743942_at) / RFU ECM1 (11717891_a_at) / Fold change /veh ECM1 (11717891_a_at) / RFU IL23R (11748794_a_at) / Fold change /veh IL23R (11748794_a_at) / RFU TNFAIP8L3 (11732012_x_at) / Fold change /veh TNFAIP8L3 (11732012_x_at) / RFU MBOAT4 (11741988_at) / Fold change /veh MBOAT4 (11741988_at) / RFU 11764193_at / Fold change /veh 11764193_at / RFU TMEM53 (11763286_at) / Fold change /veh TMEM53 (11763286_at) / RFU MAGEB2 (11727129_at) / Fold change /veh MAGEB2 (11727129_at) / RFU TMEM200A (11744735_a_at) / Fold change /veh TMEM200A (11744735_a_at) / RFU CCDC152 (11751479_a_at) / Fold change /veh CCDC152 (11751479_a_at) / RFU FAM211A (11726209_a_at) / Fold change /veh FAM211A (11726209_a_at) / RFU RGS16 (11746705_a_at) / Fold change /veh RGS16 (11746705_a_at) / RFU VCAN (11755009_s_at) / Fold change /veh VCAN (11755009_s_at) / RFU RHOB (11743442_s_at) / Fold change /veh RHOB (11743442_s_at) / RFU RGS16 (11720943_a_at) / Fold change /veh RGS16 (11720943_a_at) / RFU RGS16 (11720944_at) / Fold change /veh RGS16 (11720944_at) / RFU, VPS4B / Fold change vs veh, VPS4B / RFU, CREB1 / Fold change vs veh, CREB1 / RFU, DNAJC13 / Fold change vs veh, DNAJC13 / RFU, GNAQ / Fold change vs veh, GNAQ / RFU, CDK5R1 / Fold change vs veh, CDK5R1 / RFU, ZRANB3 / Fold change vs veh, ZRANB3 / RFU, CUL4A / Fold change vs veh, CUL4A / RFU, CCNY / Fold change vs veh, CCNY / RFU, UFL1 / Fold change vs veh, UFL1 / RFU, COG3 / Fold change vs veh, COG3 / RFU, DIAPH2 / Fold change vs veh, DIAPH2 / RFU, SKA2 / Fold change vs veh, SKA2 / RFU, AFF3 / Fold change vs veh, AFF3 / RFU, LMF1 / Fold change vs veh, LMF1 / RFU, IPO11 / Fold change vs veh, IPO11 / RFU, DFFB / Fold change vs veh, DFFB / RFU, FOXP1 / Fold change vs veh, FOXP1 / RFU, CARD8 / Fold change vs veh, CARD8 / RFU, STRN3 / Fold change vs veh, STRN3 / RFU, ADK / Fold change vs veh, ADK / RFU, RASSF2 / Fold change vs veh, RASSF2 / RFU, WIPF1 / Fold change vs veh, WIPF1 / RFU, LARP1B / Fold change vs veh, LARP1B / RFU, RASA1 / Fold change vs veh, RASA1 / RFU, RB1 / Fold change vs veh, RB1 / RFU, PPFIA1 / Fold change vs veh, PPFIA1 / RFU, MAT2A / Fold change vs veh, MAT2A / RFU, CCT5 / Fold change vs veh, CCT5 / RFU, WDR92 / Fold change vs veh, WDR92 / RFU, CUX1 / Fold change vs veh, CUX1 / RFU, TTC7A / Fold change vs veh, TTC7A / RFU, TMEM135 / Fold change vs veh, TMEM135 / RFU, DEPTOR / Fold change vs veh, DEPTOR / RFU, CPM / Fold change vs veh, CPM / RFU, DNAJB6 / Fold change vs veh, DNAJB6 / RFU, CACNA2D3 / Fold change vs veh, CACNA2D3 / RFU, DTX4 / Fold change vs veh, DTX4 / RFU, TFCP2 / Fold change vs veh, TFCP2 / RFU, GMCL1 /// GMCL1P1 / Fold change vs veh, GMCL1 /// GMCL1P1 / RFU, AEBP2 / Fold change vs veh, AEBP2 / RFU, SNHG1 /// SNORD22 /// SNORD25 /// SNORD26 /// SNORD27 /// SNORD28 /// SNORD29 /// SNORD31 / Fold change vs veh, SNHG1 /// SNORD22 /// SNORD25 /// SNORD26 /// SNORD27 /// SNORD28 /// SNORD29 /// SNORD31 / Fold change (Aza/veh), C12orf56 (ProbeSet 11735607_a_at) / Fold change (ACY-1035/veh), C12orf56 (ProbeSet 11735607_a_at) / Fold change (Aza/veh), FGFR1OP (ProbeSet 11751329_s_at) / Fold change (ACY-1035/veh), FGFR1OP (ProbeSet 11751329_s_at) / Fold change (Aza/veh), VPS36 (ProbeSet 11739960_a_at) / Fold change (ACY-1035/veh), VPS36 (ProbeSet 11739960_a_at) / RFU SYPL1 (11715823_x_at) / Fold change /veh SYPL1 (11715823_x_at) / RFU IGFBP7 (11715501_s_at) / Fold change /veh IGFBP7 (11715501_s_at) / RFU REEP3 (11722064_at) / Fold change /veh REEP3 (11722064_at) / RFU IGLL1 (11728026_x_at) / Fold change /veh IGLL1 (11728026_x_at): dose or concentration left out as unconfirmed
Conditions: ProbeSet 11732154_at; LIST B

Compound: Nc1ccc(-c2cccs2)cc1NC(=O)c1ccc2c(c1)cc(C1CC1)n2CCN1CCOCC1 [ACY-1035]
- RFU, OGT: 340.88 RFU
